System: 521955-158-R2-J5-PDC complex spheroid growth
Experiment: Anticancer human tumor 521955-158-R2-J5-PDC patient-derived pancreatic carcinoma cell line growth inhibition [AhR]
Details: for IC50: curve of first compound; for viability, T/C: stronger effect = lower value
From the text: Multicellular complex tumor spheroid response to aryl hydrocarbon receptor antagonists in combination with a variety of drugs and investigational agents in selected tumor cell lines
The current study was undertaken to assess response to aryl hydrocarbon receptor antagonists in combination with standard-of-care drugs and investigational agents in solid tumor complex spheroid models. Complex spheroids include a stromal component modeled by human endothelial cells (HUVEC) and fibroblasts modeled by human mesenchymal stem cells (MSCs). The concentration ranges selected for each drug and investigational agent were based upon clinically achievable concentrations if the clinical Cmax of the agent was known.
Compounds. The drugs and investigational agents: BAY 2416964 (NSC825713), GNF351 (NSC835774), CH-223191 (NSC835775), CPI-455 (NSC825282), aza-TdCyd (NSC777586), decitabine (NSC127716), belinostat (NSC758774), entinostat (NSC756642), pevonedistat (NSC761192), tazemetostat (NSC777109), talazoparib (NSC765396), olaparib (NSC753686), selinexor (NSC780203), nedisertib (M3814, NSC802822), bortezomib (NSC756655), venetoclax (NSC766270), doxorubicin (NSC123127), elimusertib (BAY189344, NSC800525), ceralasertib (AZD6738, NSC777638), TAK-243 (NSC785004), alisertib (NSC759677), etoposide (NSC141540), topotecan (NSC609699), eribulin (NSC707389), gemcitabine (NSC613327), carboplatin (NSC241240), cisplatin (NSC119875), and SN-38 (NSC673596) were obtained from the National Cancer Institute (NCI) Developmental Therapeutics Program Chemical Repository (32). The FDA-approved anticancer drug set is available from the Developmental Therapeutics Program at https://dtp.cancer.gov/organization/dscb/obtaining/available plates.htm. […] The stock solutions were prepared in dimethyl sulfoxide (DMSO, Sigma-Aldrich, St. Louis, MO, cat. D2650), except for the platinum compounds which were prepared in saline (Quality Biological, Gaithersburg, MD, cat. 114-055-101), at 800-fold the tested concentration and stored at -70 degrees C prior to their use. All drugs and investigational agents were tested over a range starting from a high concentration at or near the clinical Cmax and decreasing in half-log increments. If the clinical Cmax for an agent had not been determined, the highest concentration tested was 10 microM (Table 1).
Cell Culture. All cells were maintained in an incubator at 37 degrees C and 5% CO2 with 95% humidity. The PDC lines were cultured according to standard operating procedures established by the NCI PDMR (https://pdmr.cancer.gov). Briefly, all PDCs were thawed and cultured in Matrigel-coated flasks prepared with a working solution of 1X Ham's F-12 nutrient mix, without supplementation (Invitrogen, Waltham, MA, cat. 11765054), 100 U/mL penicillin-streptomycin (Invitrogen, cat. 15140122), and 2.5% Matrigel (Corning Inc., Corning, NY, cat. 354248) for the first three passages. All PDCs were cultured in complete DMEM/F-12 media containing advanced DMEM/F-12 (Invitrogen, cat. 12634028), 4.9% defined fetal bovine serum, heat inactivated (HyClone Laboratories Inc., Logan, UT, cat. SH30070.03HI), 389 ng/mL hydrocortisone (Sigma-Aldrich, cat. H4001), 9.7 ng/mL human EGF recombinant protein (Invitrogen, cat. PHG0313), 23.4 microg/mL adenine (Sigma-Aldrich, cat. A2786), 97.3 U/mL penicillin-streptomycin (Invitrogen, cat. 15140122), 1.9 mM L-glutamine (Invitrogen, cat. 25030081), and 9.7 microM Y-27632 dihydrochloride (Tocris Bioscience, Bristol, United Kingdom, cat. 1254). The PDCs were cultured in complete DMEM/F12 media without 10 microM Y-27632 dihydrochloride for at least two passages prior to the screen. The established cell lines NCI-H1341 and […] were cultured in DMEM/F-12, HEPES (Invitrogen, cat. 11330032), 5% defined fetal bovine serum (HyClone Laboratories Inc., cat. SH30070.03), ITS premix universal culture supplement [insulin (5 microg/mL), transferrin (5 microg/mL), and selenious acid (5 ng/mL)] […]
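Wherever viability, T/C is given: spheroids mix tumor cells with HUVEC endothelium and human MSC stroma; luminescence taken as viability surrogate after a week of drug exposure.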

With CCN(c1cc(-c2ccc(CN3CCOCC3)cc2)cc(C(=O)NCc2c(C)cc(C)[nH]c2=O)c1C)C1CCOCC1 + Cc1ccccc1N=Nc1ccc(NC(=O)c2ccnn2C)c(C)c1 the IC50 (second compound 0.1 µM) was > 3 µM, the IC50 (second compound 0.316 µM) was > 3 µM and the IC50 (second compound 1 µM) was > 3 µM. For the same compound, the IC50 (second compound 3.16 µM) was > 3 µM, the IC50 (second compound 10 µM) was > 3 µM and the viability, T/C (second compound 0.1 µM, first compound 0.00949 µM) was 123%. For the same compound, the viability, T/C (second compound 0.1 µM, first compound 0.03 µM) was 110%, the viability, T/C (second compound 0.1 µM, first compound 0.0949 µM) was 103% and the viability, T/C (second compound 0.1 µM, first compound 0.3 µM) was 89.1%. For the same compound, the viability, T/C (second compound 0.1 µM, first compound 0.949 µM) was 74.4%, the viability, T/C (second compound 0.1 µM, first compound 3 µM) was 79.9% and the viability, T/C (second compound 0.316 µM, first compound 0.00949 µM) was 111%. The viability, T/C (second compound 0.316 µM, first compound 0.03 µM) was 106%, the viability, T/C (second compound 0.316 µM, first compound 0.0949 µM) was 110% and the viability, T/C (second compound 0.316 µM, first compound 0.3 µM) was 83.1%. For the same compound, the viability, T/C (second compound 0.316 µM, first compound 0.949 µM) was 76.6%, the viability, T/C (second compound 0.316 µM, first compound 3 µM) was 84.3% and the viability, T/C (second compound 1 µM, first compound 0.00949 µM) was 96.6%. It also gave a viability, T/C (second compound 1 µM, first compound 0.03 µM) of 113%, a viability, T/C (second compound 1 µM, first compound 0.0949 µM) of 97.2% and a viability, T/C (second compound 1 µM, first compound 0.3 µM) of 83.6%. It also gave a viability, T/C (second compound 1 µM, first compound 0.949 µM) of 95.7%, a viability, T/C (second compound 1 µM, first compound 3 µM) of 87.6% and a viability, T/C (second compound 3.16 µM, first compound 0.00949 µM) of 126%. It also gave a viability, T/C (second compound 3.16 µM, first compound 0.03 µM) of 128%, a viability, T/C (second compound 3.16 µM, first compound 0.0949 µM) of 128% and a viability, T/C (second compound 3.16 µM, first compound 0.3 µM) of 125%. For the same compound, the viability, T/C (second compound 3.16 µM, first compound 0.949 µM) was 102%, the viability, T/C (second compound 3.16 µM, first compound 3 µM) was 112% and the viability, T/C (second compound 10 µM, first compound 0.00949 µM) was 164%. For the same compound, the viability, T/C (second compound 10 µM, first compound 0.03 µM) was 153%, the viability, T/C (second compound 10 µM, first compound 0.0949 µM) was 166% and the viability, T/C (second compound 10 µM, first compound 0.3 µM) was 150%. The viability, T/C (second compound 10 µM, first compound 0.949 µM) was 126% and the viability, T/C (second compound 10 µM, first compound 3 µM) was 122%.

For O=C(c1cc(Cc2n[nH]c(=O)c3ccccc23)ccc1F)N1CCN(C(=O)C2CC2)CC1 + CC(CO)NC(=O)c1cc(-c2ccc(Cl)cc2)nn(-c2cnn(C)c2)c1=O, the IC50 (second compound 0.1 µM) was > 10 µM, the IC50 (second compound 0.316 µM) was > 10 µM and the IC50 (second compound 1 µM) was > 10 µM. The IC50 (second compound 3.16 µM) was > 10 µM, the IC50 (second compound 10 µM) was > 10 µM and the viability, T/C (second compound 0.1 µM, first compound 0.0316 µM) was 116%. The viability, T/C (second compound 0.1 µM, first compound 0.1 µM) was 107%, the viability, T/C (second compound 0.1 µM, first compound 0.316 µM) was 116% and the viability, T/C (second compound 0.1 µM, first compound 1 µM) was 85.6%. For the same compound, the viability, T/C (second compound 0.1 µM, first compound 3.16 µM) was 76.7%, the viability, T/C (second compound 0.1 µM, first compound 10 µM) was 75.3% and the viability, T/C (second compound 0.316 µM, first compound 0.0316 µM) was 102%. The viability, T/C (second compound 0.316 µM, first compound 0.1 µM) was 119%, the viability, T/C (second compound 0.316 µM, first compound 0.316 µM) was 93.7% and the viability, T/C (second compound 0.316 µM, first compound 1 µM) was 101%. The viability, T/C (second compound 0.316 µM, first compound 3.16 µM) was 73.2%, the viability, T/C (second compound 0.316 µM, first compound 10 µM) was 71.3% and the viability, T/C (second compound 1 µM, first compound 0.0316 µM) was 101%. The viability, T/C (second compound 1 µM, first compound 0.1 µM) was 104%, the viability, T/C (second compound 1 µM, first compound 0.316 µM) was 110% and the viability, T/C (second compound 1 µM, first compound 1 µM) was 88.7%. For the same compound, the viability, T/C (second compound 1 µM, first compound 3.16 µM) was 83.7%, the viability, T/C (second compound 1 µM, first compound 10 µM) was 72.6% and the viability, T/C (second compound 3.16 µM, first compound 0.0316 µM) was 91.9%. For the same compound, the viability, T/C (second compound 3.16 µM, first compound 0.1 µM) was 128%, the viability, T/C (second compound 3.16 µM, first compound 0.316 µM) was 110% and the viability, T/C (second compound 3.16 µM, first compound 1 µM) was 97.7%. It also gave a viability, T/C (second compound 3.16 µM, first compound 3.16 µM) of 85.4%, a viability, T/C (second compound 3.16 µM, first compound 10 µM) of 70.5% and a viability, T/C (second compound 10 µM, first compound 0.0316 µM) of 68.5%. The viability, T/C (second compound 10 µM, first compound 0.1 µM) was 82.6%, the viability, T/C (second compound 10 µM, first compound 0.316 µM) was 87.4% and the viability, T/C (second compound 10 µM, first compound 1 µM) was 79.9%. The viability, T/C (second compound 10 µM, first compound 3.16 µM) was 70.6% and the viability, T/C (second compound 10 µM, first compound 10 µM) was 50.5%.

— PubChem BioAssay AID1918998 (Molecular Pharmacology Branch, DTP, NCI, 2023)
